The target of series [1] is FGFR1 (Homo sapiens, UniProt P11362). The series can be described thus: ELISA kinase assay (FGFR1 enzymatic assay). Format: biochemical. As for the experimental part:
The effects of compounds on the activities of FGFR1 kinases were determined using enzyme-linked immunosorbent assays (ELISAs) with purified recombinant proteins. Briefly, 20 μg/mL poly (Glu, Tyr)4:1 (Sigma, St. Louis, MO, USA) was pre-coated in 96-well plates as a substrate. A 50-μL aliquot of 10 μmol/L ATP solution diluted in kinase reaction buffer (50 mmol/L HEPES [pH 7.4], 50 mmol/L MgCl2, 0.5 mmol/L MnCl2, 0.2 mmol/L Na3VO4, and 1 mmol/L DTT) was added to each well; 1 μL of various concentrations of compounds diluted in 1% DMSO (v/v) (Sigma) were then added to each reaction well. DMSO (1%, v/v) was used as the negative control. The kinase reaction was initiated by the addition of purified tyrosine kinase proteins diluted in 49 μL of kinase reaction buffer. After incubation for 60 min at 37 °C, the plate was washed three times with phosphate-buffered saline (PBS) containing 0.1% Tween 20 (T-PBS). Anti-phosphotyrosine (PY99) antibody (100 μL; 1:500, diluted in 5 mg/mL BSA T-PBS) was then added. After a 30-min incubation at 37 °C, the plate was washed three times, and 100 μL horseradish peroxidase-conjugated goat anti-mouse IgG (1:2000, diluted in 5 mg/mL BSA T-PBS) was added. The plate was then incubated at 37 °C for 30 min and washed 3 times. A 100-μL aliquot of a solution containing 0.03% H2O2 and 2 mg/mL o-phenylenediamine in 0.1 mol/L citrate buffer (pH 5.5) was added. The reaction was terminated by the addition of 50 μL of 2 mol/L H2SO4 as the color changed, and the plate was analyzed using a multi-well spectrophotometer (SpectraMAX 190, Molecular Devices, Palo Alto, CA, USA) at 490 nm. […] The IC50 values were calculated from the inhibition curves in two separate experiments.
A general note: In an ELISA, binding on a coated surface is turned into a signal by an enzyme label.

Series [2] has as its system tumors harboring FGFR signaling aberrations. The conditions noted are these: phase I trial, patients with tumors harboring FGFR signaling aberrations; cited from earlier work.
In series [3] the test system is FGFR4. Set-up: method as in PMID 21936542. Particulars: molecular level; cited from earlier work.
The subject of series [4] is FGFR3. Set-up: method as in PMID 21936542. Particulars: molecular level; cited from earlier work.
The test system of series [5] is FGFR2. Also noted: method as in PMID 21936542. Particulars: molecular level; cited from earlier work.

Sequence of FGFR1 (P11362 22-822): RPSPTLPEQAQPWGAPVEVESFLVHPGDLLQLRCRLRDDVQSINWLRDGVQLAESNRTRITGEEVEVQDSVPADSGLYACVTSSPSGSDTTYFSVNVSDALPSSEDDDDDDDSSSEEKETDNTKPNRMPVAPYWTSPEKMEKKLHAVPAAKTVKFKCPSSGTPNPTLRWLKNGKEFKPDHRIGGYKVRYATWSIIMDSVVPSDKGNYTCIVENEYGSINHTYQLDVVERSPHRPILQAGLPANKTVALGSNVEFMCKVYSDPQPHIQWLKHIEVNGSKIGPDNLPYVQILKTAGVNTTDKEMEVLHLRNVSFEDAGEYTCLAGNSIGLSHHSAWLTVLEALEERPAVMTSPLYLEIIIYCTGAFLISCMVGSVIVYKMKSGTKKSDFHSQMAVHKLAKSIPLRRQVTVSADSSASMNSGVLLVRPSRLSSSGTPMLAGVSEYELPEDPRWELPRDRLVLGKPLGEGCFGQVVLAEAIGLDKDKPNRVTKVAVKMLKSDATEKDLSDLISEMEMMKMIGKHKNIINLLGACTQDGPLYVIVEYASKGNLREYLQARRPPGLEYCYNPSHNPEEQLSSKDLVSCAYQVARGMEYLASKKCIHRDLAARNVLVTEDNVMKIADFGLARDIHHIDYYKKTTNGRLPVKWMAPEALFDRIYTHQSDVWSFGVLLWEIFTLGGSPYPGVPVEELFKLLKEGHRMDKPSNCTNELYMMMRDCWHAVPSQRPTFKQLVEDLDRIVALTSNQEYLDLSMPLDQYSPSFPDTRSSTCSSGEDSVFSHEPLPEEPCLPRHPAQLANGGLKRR

For AZD4547 [reference compound], the “Enzyme Inhibition (%)” value amounted to 93.2% in series [1] (0.1 μmol/L compound) and 94.3% in series [1] (1 μmol/L compound). For the same compound, the “on-target activity observed in patients” value in series [2] is “five of 20”.
In turn, `COc1cc(OC)c(Cl)c(-c2cc(C(=O)Nc3cccc(N4CCOCC4)c3)c3cn[nH]c3c2)c1Cl` [Compound 12f, 6-(2,6-Dichloro-3,5-dimethoxyphenyl)-N-(3-morpholinophenyl)-1H-indazole-4-carboxamide] gave a melting point of 159 to 161 °C. In addition, in series [1] (0.01 μmol/L compound, read-out: Enzyme Inhibition (%)), the inhibition at 0.01 µM was 28.3%. Moreover, the inhibition at 0.1 µM in series [1] (0.1 μmol/L compound, read-out: Enzyme Inhibition (%)) was found to be 58.7%. In series [1] (mean ± SD, two separate experiments), this compound came in with a 50% inhibitory concentration (IC50) of 0.054 ± 0.0087 µM.
For the compound `CCN1CCN(c2ccc(Nc3cc(N(C)C(=O)Nc4c(Cl)c(OC)cc(OC)c4Cl)ncn3)cc2)CC1` [NVP-BGJ398, 3-(2,6-dichloro-3,5-dimethoxy-phenyl)-1-{6-[4-(4-ethyl-piperazin-1-yl)-phenylamino]-pyrimidin-4-yl}-1-methyl-urea], the IC50 in series [3] was […]; in series [4] it was […]; in series [5], 0.0014 µM.

The inhibition is the percentage by which the read-out fell short of the control. A word on the IC50: it is the concentration that gives 50% inhibition. One may read the melting point as the temperature, or range, at which the solid turns liquid.

The values above are taken from paper PMC6273472, “Design, Synthesis and Biological Evaluation of 6-(2,6-Dichloro-3,5-dimethoxyphenyl)-4-substituted-1H-indazoles as Potent Fibroblast Growth Factor Receptor Inhibitors” (Molecules, 2016).
